Results published in US10827695B2, “Process for in vitro flowering in Crocus sativus L” (Council of Scientific & Industrial Research, priority 2015, dated 2020).

System: saffron crocus (Crocus sativus L.) corm explants
Assay: in-vitro induction of flowering / proliferation of floral primordia in corm explants on MS medium with PGR
Assay type: cell-based
Method: Accordingly, the incubation is carried out at a temperature in the range of 9° C. to 30° C. preferably at a temperature in the range of 9° C. to 21° C., with RH (relative humidity) in the range of 50 to 90%, and photoperiod of about 16 hours provided by 1/2/4 cool fluorescent tubes (Philips, 40 W), giving about 11.7 ? mol m−^2 s^−1 PPF (Photosynthetic Photon Flux) i.e. ˜866 lux (illuminance) each followed by 8-h dark period. The cultures are maintained for 4-5 weeks in the medium at above incubation conditions during which 80% of the culture remain sterile and show sprouting. They are then transferred to fresh MS medium of same composition and incubated under sterile conditions for about 1 to 2 weeks till the sprouted buds are about 8 cm long. The sprouted buds are slit vertically and incubated in MS medium of same composition for another 2 to 3 weeks under the same conditions. This helps the bud to open and grow further (FIG. 1 & FIG. 2).
(§1) Corms weighing ˜10 gm were used for the experiments. Explants were prepared by trimming the sides and base of the corms and making small cubes of about 1 cm^3 containing the dormant or slightly sprouted apical buds on 22 Oct. 2014.
These explants were surface sterilized by washing them with neutral Detergent Labolene for 10 min followed by washing with 15% Savlon for 10 minutes. Further, these explants were treated with 1% Bavistin (BASF) for 30 minutes followed by 5 min followed by 0.08% mercuric chloride treatment in a sterile work station (Laminar Air Flow cabinet). After each treatment the explants were washed with sterile distilled water.
Murashige and Skoog Medium supplemented with 6 benzyl amino purine (BAP) (1.0 mg/l) was used for culture. The media made in distilled water was further constituted with 3% sucrose and 0.6% agar. The final pH was adjusted at 5.7. The media was autoclaved at 121° C. at 15 lbs pressure for 20 minutes.
The cultures were maintained for 5 weeks in the medium at 25±2° C., light intensity 16-h light (at 11.7 ? mol m^−2s^−1) followed by 8-h dark period.
The sterile sprouted buds of 5-7 cms length were transferred to fresh medium of same composition after making a vertical slit on the sprouting bud. It helps the bud to open and grow further.
They were again incubated for 3 weeks under the same incubation conditions.
as §1, with “2014. One part of such samples was used for this set-up, while other was reserved for set ^-up of Example 3.” for “2014.”
The explants were surface sterilized by passing it through Detergent Labolene for 10 min followed by washing with 15% Savlon for 10 minutes. Further, the cubed explants were treated with 1% Bavistin (BASF) for 30 minutes followed by 5 min 0.08% mercuric chloride treatment in a sterile work station (Laminar Air Flow cabinet). After each treatment the explants were washed with sterile distilled water.
The cultures were maintained for 5 weeks in the medium at 25±2° C. Light intensity 16-h light (at 11.7 ? mol m^−2 s^−1) followed by 8-h dark period.
The sterile sprouted buds of 5-7 cm length were transferred to fresh medium of same composition after making a vertical slit on the sprouting bud.
The explants were surface sterilized by treating them with neutral detergent Labolene for 15 min followed by washing with 20% Savlon for 5 minutes. […]

Row | Compound | flowering in cultures (Example 1, MS medium with 1.0 mg/l, explants prepared 22 Oct. 2014, observed by Nov. 5, 2014 (natural flowering season)) | flowering in cultures maintained on fresh medium (Example 2, MS medium with 1.0 mg/l, until May 2015) | initiation of flowering in culture (Example 2, MS medium with 1.0 mg/l, until late December 2014 (beyond natural flowering period)) | flowering in cultures (Example 3, MS medium with 0.01, 0.05 and 0.1 mg/l, by last week of December 2014) | flowering in cultures maintained on fresh medium (Example 3, MS medium with 0.01, 0.05 and 0.1 mg/l, till May 2015)
1 | c1ccc(CNc2ncnc3nc[nH]c23)cc1 [BAP, 6-benzylaminopurine] | Flowering was observed | flowering was observed | Initiation of flowering was observed |  | 
2 | O=C(Nc1ccccc1)Nc1cnns1 [TDZ, thidiazuron] |  |  |  | Flowering was observed | flowering was observed
